{"source": "patent US20150025012A1", "about": "“METHODS AND COMPOSITIONS FOR IDENTIFICATION, ASSESSMENT AND TREATMENT OF CANCERS ASSOCIATED WITH HEDGEHOG SIGNALING” (Infinity Pharmaceuticals, Inc., priority 2010, published 2015)", "key": {"[1]": {"tested_on": "murine Gli1", "experiment": "Gli1 mRNA in sorted stromal cell fractions of tumors", "assay_type": "in vivo", "conditions": "Lin+/Lin- and CD31+/CD31- fractions; IPI-926 40 mg/kg 24 hours prior to sacrifice", "source_text": "Since tumor-associated stroma is a complex mixture of different cell types, further experiments have been carried out to determine the identity of the IPI-926-responsive cells. Tumors were obtained from animals treated or untreated with IPI-926 and the cells from within the tumors were subsequently fractionated in the following manner. First, the human cancer cells were removed from the mixture using magnetic beads that were coated with an antibody against the cell surface marker, Ep-CAM. Those cells that remained were the murine stromal cells associated with that tumor. Next, these stromal cells were subsequently separated based on their expression of cell surface markers known to be associated with specific cell lineages. In one sample set, cells were separated based on their expression of a panel of markers specific for cells of the hematopoietic lineage. These cells can be referred to as either Lin− or Lin+. […]\nCells used for sorting experiments were obtained by the following procedure. […] After this incubation, the cells in the flow through and the column were then analyzed for their expression of specific mRNAs by RT-PCR.\nRNA for analysis was isolated from cell pellets or tumor tissue using the Ambion RNA 4-PCR isolation kit according to the manufacturer's guidance. […] Relative quantification of the expression data was obtained using the ΔΔCT method as described by Applied Biosystems."}, "[2]": {"tested_on": "hGli-1 mRNA expression", "experiment": "Gli-1 mRNA expression after SHh stimulation in tumor cell lines (qRT-PCR)", "assay_type": "cell-based, human", "conditions": "SW872 liposarcoma cell lines; 500 nM IPI-926", "procedure": "Several tumor cell lines were tested for Hh pathway responsiveness and for the presence or absence of cilia or vimentin immunofluorescence (IF). Hh pathway responsiveness was evaluated by detecting increases in hGli-1 mRNA expression in response to Sonic Hedgehog stimulation) in a control sample (C), sample treated with Sonic Hedgehog (SHh), and sample treated with SHh and 500 nM of the hedgehog inhibitor IPI-926 (926). Procedures for RNA extraction and RT-PCR detection were performed by standard methods. Briefly, total RNA was extracted from all tumors using a standard RNEASY® Mini Kit (Qiagen). Next, the RNA was converted to cDNA and 50 ng cDNA was used in each reaction/sample for qRT-PCR analysis of the expression of human Gli1. Samples were tested in duplicate. Cilia and Vimentin IF was performed using standard immunofluorescent methods. Cilia were detected on cells using immunofluorescence (IF) with antibodies specific for acetylated-tubulin obtained from Sigma Aldrich. Cells were co-stained with antibodies to the centriole-specific protein pericentrin.\nHh pathway modulation measured after growing cells in low serum and treating with SHh ligand in the presence or absence of IPI-926. Cell lines were cultured under the following conditions. […]"}, "[3]": {"tested_on": "Basal Cell Carcinoma (BCC) lesion", "experiment": "BCC lesion in a patient before and after treatment", "assay_type": "in vivo, human", "conditions": "six months after treatment"}, "[4]": {"tested_on": "subcutaneous L3.6pl tumor model", "experiment": "Tumor perfusion by contrast enhanced high frequency ultrasound", "assay_type": "in vivo, mice", "conditions": "IPI-926 orally 40 mg/kg for seven days, compared to vehicle", "procedure": "The L3.6pl tumor cell line was injected subcutaneously and treatment with IPI-926 was initiated. IPI-926 or vehicle was administered orally at 40 mg/kg for seven consecutive days. On the eighth day, animals were subjected to ultrasound image capture and analysis using the Vevo 2100 high frequency ultrasound instrument (Visualsonics) in conjunction with contrast enhancement (microbubbles) during the imaging procedure. Contrast agent was administered by iv administration during the imaging procedure and quantified by measuring echogenic signal derived from the contrast agent over time."}, "[5]": {"tested_on": "patient derived tumor xenograft models", "experiment": "Tumor growth in patient derived tumor xenograft models", "assay_type": "in vivo, Mice", "source_text": "Mice received daily treatment of IPI-926, M-F, for 6-10 weeks (n=10-15 per group)."}, "[6]": {"tested_on": "Gli1 mRNA", "experiment": "Gli1 mRNA expression in tumor stroma (RT-PCR)", "assay_type": "in vivo, murine", "conditions": "animals receiving IPI-926 (40 mg/kg) compared to vehicle", "source_text": "In each of these cases, the action of IPI-926 coincides with downregulation of mRNA for Gli1, an important molecule in the Hedgehog signaling pathway, in the tumor stroma of experimental animals receiving IPI-926 (FIG. 12A). The downregulation of Gli1 mRNA can be used as a functional readout for inhibition of Hedgehog signaling. Moreover, in these models, it appears to be the cancer cells that express the ligand of the Hedgehog signaling pathway (FIG. 12B). Thus, without being bound by theory, Applicants believe that the tumor cells express Hedgehog ligand which signals to a tumor associated stromal cell.\nRNA for analysis was isolated from cell pellets or tumor tissue using the Ambion RNA 4-PCR isolation kit according to the manufacturer's guidance. Reverse transcription-PCR was performed for human GAPDH, Gli l and SHh and murine GAPDH, Gli1, PECAM and RGS5 using an ABI-7300 system with ABI primer/probes. Relative quantification of the expression data was obtained using the ΔΔCT method as described by Applied Biosystems."}, "[7]": {"conditions": "daily treatment M-F for 6-10 weeks, multiple models"}}, "note": "“Also recorded” adds a separate entry of the source."}
{"smiles": "CC1=C2C[C@H]3[C@@H](CC[C@@H]4C[C@H](NS(C)(=O)=O)CC[C@@]43C)[C@@H]2CC[C@@]2(C1)O[C@@H]1C[C@H](C)CN[C@H]1[C@H]2C", "note": "[IPI-926]", "values": [{"measurement": "murine Gli1 inhibition in stromal cell fractions", "setting": "[1]", "result": "greatest degree of murine Gli1 inhibition was present in both the Lin-population and CD31-population"}, {"measurement": "SHh-upregulated Gli-1 mRNA expression", "setting": "[2]", "result": "blocked"}, {"measurement": "size and morphology of BCC lesion", "setting": "[3]", "result": "dramatic reduction"}, {"measurement": "time to reach peak contrast", "setting": "[4]", "result": "decrease; also recorded: change"}, {"measurement": "changes in morphology", "setting": "[5]; FIGS. 22A-22D micrographs", "result": "loss of tumor cells and calcification of the chondroid matrix"}, {"measurement": "mean tumor growth inhibition", "setting": "[5]; [7]", "result": 43, "unit": "%"}, {"measurement": "range of tumor growth inhibition", "setting": "[5]; [7]", "result": "33-52%"}, {"measurement": "Gli1 mRNA expression in tumor stroma", "setting": "[6]", "result": "inhibition; also recorded: suppression; also recorded: downregulation"}]}
